Experimental data from patent US20190307843A1, “SINGLE DOSE METHODS FOR PREVENTING AND TREATING FUNGAL INFECTIONS” (Cidara Therapeutics, Inc., priority 2016, published 2019).
“And” between values parts separate entries of the source, which are not always exact repeats. Equal entries are not always repeated. Starred links: 1 amine or outer side, 2 acyl side, 3 side chain; linkers in the order of their positions; H or OH if unused. Positions of bridges follow the written chain, without caps; N, C: chain ends. Non-standard residues stand in square brackets, D forms with d. Residues, ends and D or L forms follow the SMILES beside them. *: point of attachment. Orn(4R-OH,5R-OCH2CH2NMe3+) = C[N+](C)(C)CCO[C@@H](N[*:3])[C@H](O)C[C@H](N[*:1])C(=O)[*:2]; pTerphenylCO(4''-OnC5H11) = CCCCCOc1ccc(-c2ccc(-c3ccc(C(=O)*)cc3)cc2)cc1; hTyr(3S-OH,4S-OH) = N[C@H](C(=O)O)[C@H](O)[C@@H](O)c1ccc(O)cc1; Pro(3S-OH,4S-Me) = C[C@H]1CN[C@H](C(=O)O)[C@H]1O; Hyp = O=C(O)[C@@H]1C[C@@H](O)CN1

Legend:
[1] = test system: A. fumigatus strain AF293; experiment: Murine model of pulmonary aspergillosis (Example 13), terminal lung burden; assay type: in vivo, Aspergillus fumigatus
Description: A secondary endpoint for the study was terminal lung tissue burden. Immediately following confirmation of death, carcasses were frozen at −20° C. prior to tissue dissection and processing. The frozen carcasses were thawed at room temperature and the lungs removed and placed into pre-weighed bead-beating tubes containing 2 mL of PBS and subjected to mechanical disruption. Organ homogenates were diluted further in PBS and quantitatively cultured for A. fumigatus onto SABC and incubated at 30° C. for 24-48 hours. In addition, a 300 μL aliquot of the undiluted lung tissue homogenate was stored at −80° C. for possible optional assessment of burden by qPCR.

[2] = test system: C. auris; experiment: Murine model of disseminated candidiasis, C. auris infection, kidney CFU and survival; assay type: in vivo, Candida auris; conditions: CD101 20 mg/kg IP
[3] = test system: C. albicans; experiment: Neutropenic murine disseminated candidiasis model, PK/PD targets, C. albicans
[4] = test system: C. albicans SC-5314 biofilms; experiment: Mature phase biofilms (treatment), XTT metabolic activity and CSLM; assay type: cell-based, Candida albicans
[5] = test system: A. fumigatus AF293; experiment: Murine model of pulmonary aspergillosis (Example 19), survival; conditions: for survival time post infection, range / Mean Survival / Median Survival: 1 day pre-infection; for mice surviving to the end of the study: 6/treatment group, 10 days
[6] = test system: C. albicans SC-5314 biofilms; experiment: Adhesion phase biofilms (prevention), XTT metabolic activity and CSLM; assay type: cell-based, Candida albicans
[7] = C. albicans, Median of 4 strains
[8] = CD101 0.25 and 1 μg/ml, 24 h, vs untreated
[9] = CD101 20 mg/kg IP once, 20 mg/kg
[10] = CD101 60 mg/kg IP once, 60 mg/kg

Structure (SMILES): CCCCCOc1ccc(-c2ccc(-c3ccc(C(=O)N[C@H]4C[C@@H](O)[C@@H](OCC[N+](C)(C)C)NC(=O)[C@@H]5[C@@H](O)[C@@H](C)CN5C(=O)[C@H]([C@@H](C)O)NC(=O)[C@H]([C@H](O)[C@@H](O)c5ccc(O)cc5)NC(=O)[C@@H]5C[C@@H](O)CN5C(=O)[C@H]([C@@H](C)O)NC4=O)cc3)cc2)cc1 [CD101] ({pTerphenylCO(4''-OnC5H11)}-[Orn(4R-OH,5R-OCH2CH2NMe3+)]T[Hyp][hTyr(3S-OH,4S-OH)]T[Pro(3S-OH,4S-Me)]; lactam 1-C)
- Group Geometric mean (lung burden) ([1]; CD101 20 mg/kg IP Day −3): 4.92 × 10^4 CFU/g
- Log10 Group Geometric mean (lung burden) ([1]; CD101 20 mg/kg IP Day −3): 4.69 CFU/g
- Log10 reduction from vehicle control ([1]; CD101 20 mg/kg IP Day −3): −0.92 CFU/g
- Group Geometric mean (lung burden) ([1]; CD101 20 mg/kg IP Day −5): 8.35 × 10^3 CFU/g
- Log10 Group Geometric mean (lung burden) ([1]; CD101 20 mg/kg IP Day −5): 3.92 CFU/g
- Log10 reduction from vehicle control ([1]; CD101 20 mg/kg IP Day −5): −0.15 CFU/g
- percent survival at the end of the study ([2]; 2 doses, Day 14): 80%
- average reduction in kidney CFU compared to fluconazole, amphotericin B, and vehicle treated groups ([2]; Day 1 and Day 4, Day 8): 3 log
- 1 log kill 24 h Ave Free drug AUC/MIC ([3]; C. albicans 98-17): 3.92
- 1 log kill dose ([3]; C. albicans 98-17): 2.73 mg/kg
- 1 log kill free drug AUC0-168h/MIC ([3]; C. albicans 98-17): 27.47
- 1 log kill total drug AUC0-168h/MIC ([3]; C. albicans 98-17): 3433.40
- Stasis 24 h Ave free drug AUC/MIC ([3]; C. albicans 98-17): 2.19
- Stasis free drug AUC0-168h/MIC ([3]; C. albicans 98-17): 15.35
- Stasis total drug AUC0-168h/MIC ([3]; C. albicans 98-17): 1918.43
- Static dose ([3]; C. albicans 98-17): 1.34 mg/kg
- 1 log kill 24 h Ave Free drug AUC/MIC ([3]; C. albicans 98-210): 6.72
- 1 log kill dose ([3]; C. albicans 98-210): 2.28 mg/kg
- 1 log kill free drug AUC0-168h/MIC ([3]; C. albicans 98-210): 47.01
- 1 log kill total drug AUC0-168h/MIC ([3]; C. albicans 98-210): 5875.95
- Stasis 24 h Ave free drug AUC/MIC ([3]; C. albicans 98-210): 3.70
- Stasis free drug AUC0-168h/MIC ([3]; C. albicans 98-210): 25.93
- Stasis total drug AUC0-168h/MIC ([3]; C. albicans 98-210): 3241.65
- Static dose ([3]; C. albicans 98-210): 1.06 mg/kg
- 1 log kill 24 h Ave Free drug AUC/MIC ([3]; C. albicans 580): 3.05
- 1 log kill dose ([3]; C. albicans 580): 2.03 mg/kg
- 1 log kill free drug AUC0-168h/MIC ([3]; C. albicans 580): 21.34
- 1 log kill total drug AUC0-168h/MIC ([3]; C. albicans 580): 2667.21
- Stasis 24 h Ave free drug AUC/MIC ([3]; C. albicans 580): 2.02
- Stasis free drug AUC0-168h/MIC ([3]; C. albicans 580): 14.15
- Stasis total drug AUC0-168h/MIC ([3]; C. albicans 580): 1769.30
- Static dose ([3]; C. albicans 580): 1.20 mg/kg
- 1 log kill 24 h Ave Free drug AUC/MIC ([3]; C. albicans K-1): 6.86
- 1 log kill dose ([3]; C. albicans K-1): 5.26 mg/kg
- 1 log kill free drug AUC0-168h/MIC ([3]; C. albicans K-1): 48.05
- 1 log kill total drug AUC0-168h/MIC ([3]; C. albicans K-1): 6005.95
- Stasis 24 h Ave free drug AUC/MIC ([3]; C. albicans K-1): 3.65
- Stasis free drug AUC0-168h/MIC ([3]; C. albicans K-1): 25.58
- Stasis total drug AUC0-168h/MIC ([3]; C. albicans K-1): 3197.16
- Static dose ([3]; C. albicans K-1): 2.52 mg/kg
- 1 log kill 24 h Ave Free drug AUC/MIC ([3]; C. albicans, Mean of 4 strains): 5.14
- 1 log kill dose ([3]; C. albicans, Mean of 4 strains): 3.08 mg/kg
- 1 log kill free drug AUC0-168h/MIC ([3]; C. albicans, Mean of 4 strains): 35.97
- 1 log kill total drug AUC0-168h/MIC ([3]; C. albicans, Mean of 4 strains): 4495.63
- Stasis 24 h Ave free drug AUC/MIC ([3]; C. albicans, Mean of 4 strains): 2.89
- Stasis free drug AUC0-168h/MIC ([3]; C. albicans, Mean of 4 strains): 20.25
- Stasis total drug AUC0-168h/MIC ([3]; C. albicans, Mean of 4 strains): 2531.64
- Static dose ([3]; C. albicans, Mean of 4 strains): 1.53 mg/kg
- 1 log kill 24 h Ave Free drug AUC/MIC [3, 7]: 5.32
- 1 log kill dose [3, 7]: 2.51 mg/kg
- 1 log kill free drug AUC0-168h/MIC [3, 7]: 37.24
- 1 log kill total drug AUC0-168h/MIC [3, 7]: 4654.68
- Stasis 24 h Ave free drug AUC/MIC [3, 7]: 2.92
- Stasis free drug AUC0-168h/MIC [3, 7]: 20.5 and 20.46
- Stasis total drug AUC0-168h/MIC [3, 7]: 2557.79
- Static dose [3, 7]: 1.27 mg/kg
- kill at high doses ([3]; C. albicans, a number of strains): > 2 log10
- metabolic activity (XTT) of mature biofilms [4, 8]: significantly less metabolic activity
- thickness of biofilms ([4]; CD101, untreated control 43 μm): 24 μm
- survival time post infection, range ([5]; CD101 20 mg/kg IP once): 70 to 240 h
- Mean Survival [5, 9]: 130.4 h
- Median Survival [5, 9]: 74.7 h
- mice surviving to the end of the study ([5]; CD101 20 mg/kg IP): Two mice survived to the end of the study
- survival time post infection, range ([5]; CD101 60 mg/kg IP once): 73-240
- Mean Survival [5, 10]: 122.7 h
- Median Survival [5, 10]: 88.7 h
- mice surviving to the end of the study ([5]; CD101 60 mg/kg IP): A single mouse survived to the end of the study
- survival ([5]; CD101 20 and 60 mg/kg once one day pre-infection): slight increase in survival
- biofilm formation by metabolic activity (XTT) [6, 8]: formed significantly less biofilms compared to untreated C. albicans
- thickness of biofilms ([6]; exposure to CD101, untreated control 36 μm): 4 μm
